The values below come from publication PMC11488100, “PET imaging of CXCR4 expression using [^18F]AlF-NOTA-QHY-04 for hematologic malignancy and solid tumors” (Theranostics, 2024).

Structures are written as SMILES. Bridge positions count the residues as written; N and C are the ends. Square brackets hold non-standard residues; d marks the D form. Peptide text beside a SMILES is read from it. * marks the point of attachment. NOTA = O=C(O)CN1CCN(CC(=O)O)CCN(CC(=O)*)CC1; 2Nal = N[C@@H](Cc1ccc2ccccc2c1)C(=O)O; Pen = CC(C)(S)[C@H](N)C(=O)O; 4Amb = NCc1ccc(C(=O)O)cc1; Ahx = NCCCCCC(=O)O

Series [1] concerns the target T1, recombinant CXCR4 protein (Homo sapiens, UniProt P61073).
T1 construct: purchased Novoprotein C16M
Description: Biolayer interferometry (BLI) binding assay. To be noted: BLI Octet Red96, biotinylated CXCR4 on SSA biosensors, 30 °C, HBS-P buffer pH 7.4, 0.0313-1 μM, 1:1 binding model, global fit. How it is done: The in vitro and in vivo stability of [^18F]AlF-NOTA-QHY-04 were evaluated by radio-HPLC to examine the RCP after different incubation periods. The binding affinity of the unlabeled precursor to CXCR4 was measured using the biolayer interferometry Octet Red96 system (PALL ForteBio, USA). The details are supplied in the supplemental materials. […]
human serum albumin solution were evaluated by radio-HPLC to examine the radiochemical purity after different incubation periods. For the saline study, 200 μL of [18F]AlF-NOTA-QHY-04 (0.74–3.70 MBq) was incubated at 37°C with 800 μL of saline for 1 h, 3 h and 6 h respectively, and then directly evaluated by radio -HPLC. […] Finally, the supernatant was collected and passed through a 0.22 μm membrane filter (Millipore, USA) and analyzed by radio-HPLC. […]
The processed blood supernatants and diluted urine samples were collected and passed through a 0.22 μm membrane filter (Millipore, USA) and analyzed by radio-HPLC. […]
and 1 μM NOTA-QHY-04 sample) was prepared and flowed. […] Prior to fitting, the data were baseline-subtracted and analyzed using a 1:1 binding model and the ForteBio data analysis software. Mean Kd value was determined by applying a global fit to all the data. […]
(In BLI a coated tip is dipped into the sample, and binding shifts an interference pattern.)

A short description of series [2]: [18F]FDG PET/CT imaging in cancer patients. The format is in vivo, human. From the text:
Potential eligible patients with newly diagnosed tumor were recruited from Shandong Cancer Hospital and institute from November 2022 to December 2023. A total of 55 patients including 8 tumor types were represented in this study (diffuse large B-cell lymphoma (DLBCL), n = 6; SCLC, n = 30; non-small cell lung cancer (NSCLC), n = 4; triple-negative breast cancer (TNBC), n = 3; pancreatic carcinoma, n = 3; glioma, n = 7; hepatocellular carcinoma (HCC), n = 1; and colorectal carcinoma (CRC), n = 1). The [^18F]AlF-NOTA-QHY-04 imaging study in patients was approved by the Institutional Review Board of Shandong Cancer Hospital and Institute (no. SDZLEC2023-256-02), and the patients provided their informed consent before inclusion in this study. In this prospective observational study, [^18F]AlF-NOTA-QHY-04 PET/CT scans should not affect the normal process of routine examinations and treatment as usual. Patients were enrolled according to the following criteria: (1) newly diagnosed cancer patients with visible tumors on conventional imaging; (2) histopathologically confirmed diagnosis; (3) age ≥ 18 years; (4) Eastern Cooperative Oncology Group (ECOG) performance status score of 0-2; (5) no prior cancer-directed therapy; (6) ability to undergo [^18F]AlF-NOTA-QHY-04 PET/CT scanning before treatment initiation. Specifically, regarding histological confirmation, we followed the standard clinical practice guidelines for each type of cancer [21]-[26], and provided detailed descriptions of our approach for obtaining histological evidence in the supplemental materials. All patients included in this study were treatment-naïve at the time of [^18F]AlF-NOTA-QHY-04 PET/CT imaging, to ensure that CXCR4 expression levels were not altered by treatments. PET/CT scans were performed within one week of pathological confirmation and carefully coordinated with the patient's clinical teams to avoid any delays in the initiation of treatment. Seven patients from them also underwent [^18F]FDG PET/CT scan. These patients fasted for at least 6 hours before [^18F]FDG PET/CT imaging. The methods for PET/CT scanning and image analysis were the same as previously reported, and detailed in the supplemental materials.
pathologists following standard diagnostic criteria, including routine H&E staining and
relevant immunohistochemical analyses. Histological confirmation was completed before
patients underwent [18F]AlF-NOTA-QHY-04 PET/CT imaging to ensure an accurate
correlation between imaging findings and tumor characteristics.
All the PET/CT scans in patients were acquired through an integrated in -line PET/CT
system (GEMINI TF Big Bore, Philips Healthcare, USA) at 60 min after intravenous
administration of 4.81 MBq/kg [18F]AlF-NOTA-QHY-04 or [18F]FDG. The
medical information system (Beijing Mozi Healthcare Technology Co., Ltd., Beijing,
China). ROIs were drawn on the transaxial images , and the maximum, mean, and peak
standard uptake value (SUV max, SUVmean, SUVpeak) were calculated automatically and used
for measuring the uptake of [18F]AlF-NOTA-QHY-04 by malignant tissues. In PET imaging
of brain tumors, T/N (tumor-to-normal brain ratio) was calculated according to the ratio of
SUVmax of tumor to SUVmean of the contralateral normal brain tissue. Two experienced
nuclear medicine physicians unaware of the patients’ clinical history analyzed the PET/CT
data first independently and then in consensus . […]
For mIF staining, the FFPE sections were baked for 2 h at 60 °C and then
deparaffinized with xylene and rehydrated through decreasing gradient ethanol. Antigen
retrieval was performed in AR6 buffer (Akoya Biosciences) in a microwave oven for 15

[3] abbreviates: 10 lesions of DLBCL patient No. 32.

T1 sequence (P61073 1-39 limits assumed): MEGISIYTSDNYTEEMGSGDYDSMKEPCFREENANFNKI

As usually defined, the Kd is a measure of binding affinity in units of concentration. Regarding `C[C@H](NC(=O)[C@H](CCCNC(=N)N)NC(=O)CCCCCNC(=O)c1ccc(CNC(=O)CN2CCN(CC(=O)O)CCN(CC(=O)O)CC2)cc1)C(=O)N[C@@H]1CSSC(C)(C)[C@@H](C(=O)O)NC(=O)[C@H](Cc2c[nH]cn2)NC(=O)[C@H](Cc2ccc3ccccc3c2)NC(=O)[C@H](CCCNC(=N)N)NC1=O` [[^natF]AlF-NOTA-QHY-04] ({NOTA-4Amb-Ahx}-RA[dC]R[2Nal]H[Pen]-OH; disulfide 3-7), the equilibrium dissociation constant (Kd) in series [1] stood at 41.3 ± 5.5 nM.

For the compound `C[C@H](NC(=O)[C@H](CCCNC(=N)N)NC(=O)CCCCCNC(=O)c1ccc(CNC(=O)CN2CCN(CC(=O)O)CCN(CC(=O)O)CC2)cc1)C(=O)N[C@@H]1CSSC(C)(C)[C@@H](C(=O)O)NC(=O)[C@H](Cc2c[nH]cn2)NC(=O)[C@H](Cc2ccc3ccccc3c2)NC(=O)[C@H](CCCNC(=N)N)NC1=O` [NOTA-QHY-04] ({NOTA-4Amb-Ahx}-RA[dC]R[2Nal]H[Pen]-OH; disulfide 3-7), the Kd in series [1] was 55.2 ± 11.3 nM.

For `OC[C@H]1OC(O)[C@H]([18F])[C@@H](O)[C@@H]1O` (stereo partly shown) [[^18F]FDG], the SUVmax was determined as 8.00 ± 4.57 in series [2] (setting [3]); 4.1 in series [2] (bone metastasis of NSCLC patient No. 35); 2.17 in series [2] (inguinal lymph node of DLBCL patient No. 32); 4.26 in series [2] (lymph node metastasis of NSCLC patient No. 35); 5.23 in series [2] (primary lesion of NSCLC patient No. 35). Further, the SUVmean in series [2] (setting [3]) was determined as 4.39 ± 2.36. For the same compound, the “average T/N (tumor-to-normal brain ratio)” value in series [2] (SUVmax of tumor / SUVmean of contralateral normal brain, three PCNS DLBCL and one low-grade glioma patient) is reported as 1.70 ± 0.25. In series [2] (three PCNS DLBCL patients and one low-grade glioma patient imaged with both tracers), the “average SUVmax” value is 12.12 ± 2.03.
